How the values were obtained:
[1] = biological target: T1, human α-synuclein aggregates (Homo sapiens, UniProt P37840); assay: Binding affinity of the compounds to α-synuclein aggregates (fluorescence method); details: fluorescence saturation binding; α-synuclein aggregates (PFFs) 3 μM; room temperature, 1 hour
T1 construct: made in house; host or cells: E. coli BL21 (DE3)
Procedure: α-synuclein monomers were prepared into a buffer solution containing 1×PBS, where the final protein concentration was 100 μM ([…]), and incubated in a 1000 rpm shaker at 37° C. for 7 days to obtain α-synuclein aggregates. The initial and final concentrations of the monomer protein were determined by the BCA method.
The prepared α-synuclein aggregates, also known as preformed fibrils (PFFs), are used for protein affinity testing, construction of cell model, and testing of the invention.
10 mM mother solution of DMSO was prepared from 1 mg of the compound, then diluted to 20 μM with PBS, and made gradient dilution 7 times (3× each dilution); 30 μL of test compound was added to the 384-well plate, following the experimental group was added to 30 μL α-synuclein aggregates (3 μM), and the control group was added to the same amount of PBS. After the 384-well plate was incubated shaking at 50 rpm at room temperature for 1 hour, the plate was taken out to detect the maximum absorption and emission wavelengths of the compound with an ELISA Microplate Reader, and the fluorescence values were detected at these wavelengths, too. The fluorescence changes in different concentrations of compounds were calculated using the experimental group data minus the control group data, and the protein-binding affinity of compounds was obtained using the Saturation binding module of GraphPad Prism.
The binding affinity of the Formula I compound to α-synuclein aggregates is determined by the above method, and the dissociation equilibrium constant Kd is shown in Table 1.

[2] = biological target: T2, α-synuclein aggregates in SH-SY5Y cells (Homo sapiens, UniProt P37840); assay: Immunofluorescence imaging of SH-SY5Y cell model with α-synuclein aggregates (PFFs); type: cell-based; details: co-staining with α-synuclein antibody, compound 1 h at room temperature
T2 construct: made in house; host or cells: E. coli BL21 (DE3)
Procedure: SH-SY5Y cells belong to the SK—N—SH cell line and are a kind of human neuroblastoma cells. These cells can express a variety of important proteins of neurons, such as dopaminergic transporters, dopamine hydroxylase, and tyrosine hydroxylase, so they are often used in the study of the mechanism and pharmacodynamic evaluation of Parkinson's disease. The prepared α-synuclein aggregates (PFFs) are co-incubated with SH-SY5Y cells and endocytosed into cells after 12 hours through endocytosis. The cells were further incubated with α-synuclein antibodies and compounds successively, and observed by microscope after washing with PBS. The detailed operations are as follows.
SH-SY5Y cells were cultured in a high-glucose DMEM medium (containing 10% Gibco fetal bovine serum). After 5 times of resuscitation and passage, the cell state tended to be stable. Then PFFs was added to the medium and fluorescent staining was performed after 48 h. After sucked the cell culture solution and cleaned with PBS three times, 0.3% Triton X-100 was added and incubated for 10 min. After washing with PBS, 10% goat serum was added and closed for 1 h; After cleaning with PBS, primary antibody (1:1000, 610786, BD Biosciences) was added and incubated at 4° C. overnight. After cleaning with PBS, secondary antibodies (1:1000, goat-anti-rabbit Alex Fluor 594, and goat-anti-mouse Alex Fluor 488, Invitrogen) were added and incubated at room temperature for 2 h. Finally, the compound of the invention is added and incubated at room temperature for 1 h. After cleaning with PBS, the tablet is sealed and photographed by a laser confocal microscope.

[3] = Blood-brain barrier permeability test in rat; type: in vivo; details: brain homogenate / blood supernatant after centrifugation, intravenous, SD rats, 5 mg/kg tail vein, 20 min after administration, LC-MS/MS, >0.3 indicates good blood-brain barrier penetration, read-out: brain/blood ratio
Procedure: The compound of the invention is injected into a rat tail vein to determine the blood-brain barrier permeability in vivo according to the following method.
Dissolve the tested compound in DMSO, and add castor oil and PBS for dilution (DMSO:castor oil:PBS=1:1:8). SD rats were weighed and given 5 mg/kg in the tail vein. 500 μL of blood was taken 20 min after administration after anesthetized with isoflurane. Cardiac perfusion was performed with 200 mL PBS and stopped until the organ faded, following brain tissue was got out and washed with PBS.
After centrifuging the extracted blood at 9000 rpm for 5 min, 200 μL supernatant was taken, and added 800 μL methanol. After centrifuging at 14000 rpm for 10 min, the supernatant was taken and filtered through a 0.22 μm filter membrane and stored at −80° C. for use. 2 mL PBS and 2 mL methanol were added to about 0.5 g of brain tissue to make a tissue homogenization, and then 1 mL homogenate was taken out and centrifuged at 14,000 rpm for 10 min after 2 mL methanol was added, 1 mL supernatant was taken through 0.22 μm filter membrane and stored at −80° C. for use. The concentration of compounds in the above supernatant of blood and brain homogenate were checked by LC-MS/MS, respectively.
A brain/blood ratio of <0.1, 0.1-0.3, or >0.3 indicates blood-brain barrier penetration of weak, moderate, or good, respectively. […] Since all the compounds of the invention have similar structures and their clogP values are mostly between 1.0 and 3.0, it can be predicted that other compounds of the invention should also have acceptable blood-brain barrier permeability.

[4] = biological target: T3, Lewy bodies and Lewy neurites (α-synuclein lesions) (Homo sapiens, UniProt P37840); assay: Fluorescence staining of brain slices from patients of dementia with Lewy body (DLB)
T3 construct: from tissue; host or cells: human DLB patient amygdala, fresh frozen sections
Procedure: Brain slices from patients of dementia with Lewy bodies were taken from the amygdala of a deceased person in stage 2 of dementia with Lewy bodies. Frozen sections of the amygdala with rich α-synuclein were performed with a thickness of 20 μm.
(§1) Compound I-15 was diluted to 30 μM with PBS solution containing 50% EtOH, following incubated with the fresh frozen brain sections at room temperature for 30 minutes, then washed with 50% ethanol solution for 5 minutes and ultra-pure water twice for 3 minutes each time in sequence. After the sections were buried with an embedding agent (VECTASHIELD H-1000, Vector Laboratories), images of the lesion accumulation area on the sections were obtained by fluorescence microscopy. Analysis software (Image J) was used to quantify the fluorescence radiance of both the lesion area and the area of the non-forming lesion (background) to evaluate binding selectivity.

[5] = test system: Aβ plaques and Tau neurofibrillary tangles; assay: Fluorescence staining of brain slices from patients with Alzheimer's disease (AD); design: species or system human; details: AD patient superior temporal gyrus sections, compound 30 μM
Procedure: as §1
The dewaxed brain tissue was fixed in a 10% neutral buffer of formalin solution, embedded with paraffin, and then sliced with a thickness of 6 μm. The staining method is the same as the above method for DLB patients.

Row | Structure (SMILES) | Kd [1] | binding to α-synuclein aggregates in SH-SY5Y cells (immunofluorescence, FIG. 1) [2] | Kp at 20 min [3] | further results
1 | CN(C)c1ccc(/C=C/c2nc3cc(F)ccc3n(Cc3ccccn3)c2=O)cc1 [I-1] | 0.1 to 0.2 µM |  |  | 
2 | CN(C)c1ccc(/C=C/c2nc3cc(F)ccc3n(Cc3cccnc3)c2=O)cc1 [I-2] | 0.5 to 1 µM |  |  | 
3 | CN(C)c1ccc(/C=C/c2nc3cc(F)ccc3n(Cc3ccncc3)c2=O)cc1 [I-3] | 0.5 to 1 µM |  |  | 
4 | CN(C)c1ccc(/C=C/c2nc3cc(OCCF)ccc3n(Cc3ccccn3)c2=O)cc1 [I-6] | 0.2 to 0.5 µM | excellent binding affinity and specificity | ≥ 1 | 
5 | CN(C)c1ccc(/C=C/c2nc3cc(OCCF)ccc3n(Cc3cccnc3)c2=O)cc1 [I-9] | 0.5 to 1 µM |  |  | 
6 | CN(C)c1ccc(/C=C/c2nc3cc(OCCF)ccc3n(Cc3ccncc3)c2=O)cc1 [I-12] | 0.2 to 0.5 µM | excellent binding affinity and specificity | ≥ 1 | 
7 | CN(C)c1ncc(/C=C/c2nc3cc(OCCF)ccc3n(Cc3ccccn3)c2=O)s1 [I-15] | 0.1 to 0.2 µM | excellent binding affinity and specificity | ≥ 1 | binding affinity to α-synuclein lesions (staining of Lewy bodies and Lewy neurites, FIG. 2) ([4]; DLB patient amygdala frozen sections, compound 30 μM, 30 minutes): strong binding affinity; binding to α-synuclein pathological tissue compared with Aβ and Tau pathological tissue (selectivity) ([4]; DLB versus AD brain slices, FIG. 2 and FIG. 3): significantly stronger; binding affinity to Aβ and Tau histology (FIG. 3) [5]: very weak; binding to Tau neurofibrillary filaments (FIG. 3) [5]: did not bind
